A value given as a limit tells only on which side of the number the result lay.

The target in assay [1] is T1, proteasome in Molt-4 cells (human leukemia) (Homo sapiens, UniProt P20618+P28074).
T1 sequence (P28074 60-263): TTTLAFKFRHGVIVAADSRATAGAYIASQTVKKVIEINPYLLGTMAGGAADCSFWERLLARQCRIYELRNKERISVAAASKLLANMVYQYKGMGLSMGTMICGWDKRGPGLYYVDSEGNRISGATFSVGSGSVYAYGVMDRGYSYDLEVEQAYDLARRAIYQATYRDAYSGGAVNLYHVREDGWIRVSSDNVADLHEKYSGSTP
T1 sequence (P20618 29-241): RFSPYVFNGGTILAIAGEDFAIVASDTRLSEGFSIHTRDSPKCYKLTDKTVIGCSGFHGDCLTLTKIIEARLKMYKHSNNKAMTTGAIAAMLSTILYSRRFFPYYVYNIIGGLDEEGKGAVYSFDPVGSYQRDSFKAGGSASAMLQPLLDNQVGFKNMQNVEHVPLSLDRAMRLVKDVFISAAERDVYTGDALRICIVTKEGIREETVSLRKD
In kind it is cell-based. The settings on record: assay of Example E, inhibition of MOLT4; read-out: MOLT4 (EC50). The method in brief: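 Intact Molt-4 cells (6×10^6 cells/mL) in HEPES-buffered saline were preincubated with inhibitor 15 min at 37 °C, then given cell-permeable MeOSuc-FLF-AFC at 25 μM final.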

Assay [2] addresses T2, 20S Human Erythrocyte Proteasome (HEP) (Homo sapiens, UniProt P20618+P28074).
T2 construct: 20S Human Erythrocyte Proteasome (HEP), purchased from Immatics Biotechnologies Inc; purchased Immatics Biotechnologies Inc., Tübingen, Germany; host or cells: human erythrocytes (natural source)
As to the kind of experiment: Chymotrypsin-like activity of 20S Human Erythrocyte Proteasome (HEP), IC50 determination. In kind it is biochemical. As to conditions: assay of Example C, inhibition of HEP. The method in brief:
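20S proteasome at 0.2 μg/mL (about 0.6 nM catalytic sites) in 20 mM Tris with 0.04% SDS, preincubated 15 min at 37° C with inhibitor before Suc-LLVY-AMC (100 μM final). AMC fluorescence read in the linear range; triplicates, IC50 from concentration series.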

A word on the EC50: it is the concentration at which the effect is half-maximal. What is called IC50 is the concentration that gives 50% inhibition. A high value points to weaker potency in that assay. Regarding `CC(C)C[C@H](NC(=O)[C@H](CCCNC(=N)N[N+](=O)[O-])NC(=O)CCCc1ccccc1)B1O[C@@H]2C[C@@H]3C[C@@H](C3(C)C)[C@]2(C)O1` [D.3.12, 4-Phenylbutanamide,N-[(1S)-1-[[[(1R)-1-[(3aS,4S,6S,7aR)-hexahydro-3a,5,5-trimethyl-4,6-methano-1,3,2-benzodioxaborol-2-yl]-3-methylbutyl]amino]carbonyl]-4-[[imino(nitroamino)methyl]amino]butyl]], in assay [1], the EC50 was under 200 nM. In assay [2], this compound yielded an IC50 of under 10 nM.

`CCCCCCCCC(=O)N[C@@H](CCCNC(=N)N[N+](=O)[O-])C(=O)N[C@@H](CC(C)C)B1O[C@@H]2C[C@@H]3C[C@@H](C3(C)C)[C@]2(C)O1` [D.3.15, Nonanamide,N-[(1S)-1-[[[(1R)-1-[(3aS,4S,6S,7aR)-hexahydro-3a,5,5-trimethyl-4,6-methano-1,3,2-benzodioxaborol-2-yl]-3-methylbutyl]amino]carbonyl]-4-[[imino(nitroamino)methyl]amino]butyl]]: the half-maximal effective concentration (EC50) in assay [1] was under 200 nM. The compound also came in with an IC50 in assay [2] of under 10 nM.

Consider `CC(C)C[C@H](NC(=O)[C@H](CCCNC(=N)N[N+](=O)[O-])NC(=O)c1ccc(Br)cc1)B1O[C@@H]2C[C@@H]3C[C@@H](C3(C)C)[C@]2(C)O1` [D.3.24, 4-Bromobenzamide,N-[(1S)-1-[[[(1R)-1-[(3aS,4S,6S,7aR)-hexahydro-3a,5,5-trimethyl-4,6-methano-1,3,2-benzodioxaborol-2-yl]-3-methylbutyl]amino]carbonyl]-4-[[imino(nitroamino)methyl]amino]butyl]], for which the concentration for a half-maximal effect (EC50) in assay [1] is under 200 nM. Further, the half-inhibitory concentration (IC50) in assay [2] is under 10 nM.

With `C/C(=C\c1ccccc1)C(=O)N[C@@H](CCCNC(=N)N[N+](=O)[O-])C(=O)N[C@@H](CC(C)C)B1O[C@@H]2C[C@@H]3C[C@@H](C3(C)C)[C@]2(C)O1` [D.3.26, (E)-2-Methyl-3-phenyl-acrylamide,N-[(1S)-1-[[[(1R)-1-[(3aS,4S,6S,7aR)-hexahydro-3a,5,5-trimethyl-4,6-methano-1,3,2-benzodioxaborol-2-yl]-3-methylbutyl]amino]carbonyl]-4-[[imino(nitroamino)methyl]amino]butyl]], the EC50 in assay [1] was under 200 nM. The compound further gave a half-maximal inhibitory concentration (IC50) in assay [2] of under 10 nM.

As for `CC(C)C[C@H](NC(=O)[C@H](CCCNC(=N)N[N+](=O)[O-])NC(=O)COc1ccc2ccccc2c1)B1O[C@@H]2C[C@@H]3C[C@@H](C3(C)C)[C@]2(C)O1` [D.3.27, 2-[(Naphthalen-2-yl)oxy]acetamide,N-[(1S)-1-[[[(1R)-1-[(3aS,4S,6S,7aR)-hexahydro-3a,5,5-trimethyl-4,6-methano-1,3,2-benzodioxaborol-2-yl]-3-methylbutyl]amino]carbonyl]-4-[[imino(nitroamino)methyl]amino]butyl]], the EC50 in assay [1] is under 200 nM. This compound showed an IC50 in assay [2] of under 10 nM.

For `CC(C)C[C@H](NC(=O)[C@H](CCCNC(=N)N[N+](=O)[O-])NC(=O)Cc1ccccc1Cl)B1O[C@@H]2C[C@@H]3C[C@@H](C3(C)C)[C@]2(C)O1` [D.3.29, 2-(2-Chlorophenyl)acetamide,N-[(1S)-1-[[[(1R)-1-[(3aS,4S,6S,7aR)-hexahydro-3a,5,5-trimethyl-4,6-methano-1,3,2-benzodioxaborol-2-yl]-3-methylbutyl]amino]carbonyl]-4-[[imino(nitroamino)methyl]amino]butyl]], the EC50 in assay [1] is under 200 nM. The half-maximal inhibitory concentration (IC50) in assay [2] is under 10 nM.

As to `COc1ccccc1/C=C\C(=O)N[C@@H](CCCNC(=N)N[N+](=O)[O-])C(=O)N[C@@H](CC(C)C)B1O[C@@H]2C[C@@H]3C[C@@H](C3(C)C)[C@]2(C)O1` [D.3.31, cis-3-(2-Methoxyphenyl)acrylamide,N-[(1S)-1-[[[(1R)-1-[(3aS,4S,6S,7aR)-hexahydro-3a,5,5-trimethyl-4,6-methano-1,3,2-benzodioxaborol-2-yl]-3-methylbutyl]amino]carbonyl]-4-[[imino(nitroamino)methyl]amino]butyl]], the EC50 in assay [1] was in the range of 200 to 2000 nM. Further, in assay [2], the IC50 is under 100 nM.

As for `CC(C)C[C@H](NC(=O)[C@H](CCCNC(=N)N[N+](=O)[O-])NC(=O)/C=C/c1ccccc1Br)B1O[C@@H]2C[C@@H]3C[C@@H](C3(C)C)[C@]2(C)O1` [D.3.34], the EC50 in assay [1] is under 200 nM. In assay [2], this compound returned an IC50 of under 10 nM.

Consider `Cc1ccc(CCCC(=O)N[C@@H](CCCNC(=N)N[N+](=O)[O-])C(=O)N[C@@H](CC(C)C)B2O[C@@H]3C[C@@H]4C[C@@H](C4(C)C)[C@]3(C)O2)cc1` [D.3.36, 4-(4-methylphenyl)butanamide,N-[(1S)-1-[[[(1R)-1-[(3aS,4S,6S,7aR)-hexahydro-3a,5,5-trimethyl-4,6-methano-1,3,2-benzodioxaborol-2-yl]-3-methylbutyl]amino]carbonyl]-4-[[imino(nitroamino)methyl]amino]butyl]], for which the concentration for a half-maximal effect (EC50) in assay [1] is under 200 nM. For the same compound, the IC50 in assay [2] was under 10 nM.

Take `CC(C)C[C@H](NC(=O)[C@H](CCCNC(=N)N[N+](=O)[O-])NC(=O)CSc1ccc2ccccc2c1)B1O[C@@H]2C[C@@H]3C[C@@H](C3(C)C)[C@]2(C)O1` [D.3.37]: the EC50 in assay [1] is under 200 nM. The half-inhibitory concentration (IC50) in assay [2] was under 10 nM.

In the case of `CC(C)CCCC(=O)N[C@@H](CCCNC(=N)N[N+](=O)[O-])C(=O)N[C@@H](CC(C)C)B1O[C@@H]2C[C@@H]3C[C@@H](C3(C)C)[C@]2(C)O1` [D.3.38], the concentration for a half-maximal effect (EC50) in assay [1] is under 200 nM. In assay [2], this compound had an IC50 of under 10 nM.

Take `CC(C)C[C@H](NC(=O)[C@H](CCCNC(=N)N[N+](=O)[O-])NC(=O)CCc1cccs1)B1O[C@@H]2C[C@@H]3C[C@@H](C3(C)C)[C@]2(C)O1` [D.3.39, 3-Thiophen-2-yl-propanamide,N-[(1S)-1-[[[(1R)-1-[(3aS,4S,6S,7aR)-hexahydro-3a,5,5-trimethyl-4,6-methano-1,3,2-benzodioxaborol-2-yl]-3-methylbutyl]amino]carbonyl]-4-[[imino(nitroamino)methyl]amino]butyl]]: the EC50 in assay [1] was under 200 nM. Moreover, in assay [2], the concentration for half-maximal inhibition (IC50) was under 10 nM.

As to `CC(C)C[C@H](NC(=O)[C@H](CCCNC(=N)N[N+](=O)[O-])NC(=O)CC1CCCCCC1)B1O[C@@H]2C[C@@H]3C[C@@H](C3(C)C)[C@]2(C)O1` [D.3.43], in assay [1], the concentration for a half-maximal effect (EC50) was under 200 nM. Further, in assay [2], the half-maximal inhibitory concentration (IC50) is under 10 nM.

As to `CC(C)C[C@H](NC(=O)[C@H](CCCNC(=N)N[N+](=O)[O-])NC(=O)CCc1ccccc1)B1O[C@@H]2C[C@@H]3C[C@@H](C3(C)C)[C@]2(C)O1` [D.3.49, 3-Phenylpropanamide,N-[(1S)-1-[[[(1R)-1-[(3aS,4S,6S,7aR)-hexahydro-3a,5,5-trimethyl-4,6-methano-1,3,2-benzodioxaborol-2-yl]-3-methylbutyl]amino]carbonyl]-4-[[imino(nitroamino)methyl]amino]butyl]], the half-maximal effective concentration (EC50) in assay [1] fell in the range of 200 to 2000 nM. This compound also registered a concentration for half-maximal inhibition (IC50) in assay [2] of under 10 nM.

Turning to `COc1ccc(CCCC(=O)N[C@@H](CCCNC(=N)N[N+](=O)[O-])C(=O)N[C@@H](CC(C)C)B2O[C@@H]3C[C@@H]4C[C@@H](C4(C)C)[C@]3(C)O2)cc1` [D.3.50], the EC50 in assay [1] is under 200 nM. In assay [2], this compound gave an IC50 of under 10 nM.

Take `CC(C)C[C@H](NC(=O)[C@H](CCCNC(=N)N[N+](=O)[O-])NC(=O)COc1ccc(C(C)C)cc1)B1O[C@@H]2C[C@@H]3C[C@@H](C3(C)C)[C@]2(C)O1` [D.3.54]: in assay [1], the EC50 is under 200 nM. Besides, the IC50 in assay [2] is under 10 nM.

Take `CCc1ccc(OCC(=O)N[C@@H](CCCNC(=N)N[N+](=O)[O-])C(=O)N[C@@H](CC(C)C)B2O[C@@H]3C[C@@H]4C[C@@H](C4(C)C)[C@]3(C)O2)cc1` [D.3.55]: in assay [1], the EC50 was under 200 nM. The same compound registered an IC50 in assay [2] of under 10 nM.

(Values after US8546608B2, “Proteasome inhibitors and methods of using the same” (Cephalon, Inc., priority 2003, dated 2013).)
